According to US4666908A, “5-Substituted pyrazolo[4,3-d]pyrimidine-7-ones and methods of use” (Warner-Lambert Company, priority 1985, dated 1987):
Where two headings read alike, the source gives them in different places.

Key:
adenosine A1 receptor = biological target: T1, adenosine A1 receptor (Rattus norvegicus, UniProt P25099); experiment: Adenosine Receptor Binding - A1 Receptor Affinity (RBA1), [3H]-N6-cyclohexyladenosine displacement; conditions: [3H]-CHA 1.0 nM, rat brain membranes, 25° C., one hour; read-out: RBA-1, IC50 for adenosine A1 receptor affinity
T1 construct: Whole brain minus cerebellum and brainstem from male Long Evans rats; from tissue; host or cells: whole brain minus cerebellum and brainstem, male Long Evans rats (membranes)
T1 sequence (P25099 1-326): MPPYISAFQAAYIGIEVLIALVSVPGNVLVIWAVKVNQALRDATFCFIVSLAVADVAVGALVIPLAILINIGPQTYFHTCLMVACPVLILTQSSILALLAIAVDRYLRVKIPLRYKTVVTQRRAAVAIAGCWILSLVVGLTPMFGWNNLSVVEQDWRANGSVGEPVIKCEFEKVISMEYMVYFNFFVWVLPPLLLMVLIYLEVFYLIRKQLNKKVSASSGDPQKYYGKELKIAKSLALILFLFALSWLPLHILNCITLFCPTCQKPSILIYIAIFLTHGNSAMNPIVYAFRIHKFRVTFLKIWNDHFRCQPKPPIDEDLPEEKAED
In short: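 Rat forebrain membranes (whole brain minus cerebellum and brainstem, male Long Evans) washed in 0.05 M Tris-HCl pH 7.7, used at 20 mg/ml wet tissue. Bound [3H]-N6-cyclohexyladenosine measured by filtration and scintillation counting; Hill coefficient by log-plot regression, Bmax from Scatchard plot.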

Type 1 Phosphodiesterase = experiment: Phosphodiesterase (PDE) Inhibition, Type 1 Phosphodiesterase; format: biochemical, bovine (coronary arteries); conditions: Type 1 PDE, at 10^-5 M
In short: (§1)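 PDEs isolated from bovine coronary artery by DEAE-cellulose chromatography, fractions typed by cAMP/cGMP hydrolysis ± calmodulin/CaCl2. Assay in 40 mM Tris-HCl (pH 8.0), 5 mM MgCl, 4 mM 2-mercaptoethanol with 1.0 μM ^3H-cyclic AMP or ^3H-cyclic GMP; final DMSO 1.25% (smooth muscle) or 2.5% (cardiac, platelet).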

Type 3 Phosphodiesterase = experiment: Phosphodiesterase (PDE) Inhibition, Type 3 Phosphodiesterase; format: biochemical, bovine (coronary arteries); conditions: Type 3 PDE, at 10^-5 M, substrate 3H-cAMP 1.0 μM
In short: as §1

[1] = test system: pentobarbital-anesthetized dog; experiment: In Vivo Myocardial Inotropic Activity in Anesthetized Dog (CVAD); design: species or system dog (adult mongrel); conditions: for change in vivo at 0.1 mg/kg / change in vivo at 0.31 mg/kg / change in vivo at 1 mg/kg: Canis lupus familiaris, iv; for change in vivo at 0.1 mg/kg: 0.10 mg/kg IV
In short: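 Adult mongrel dogs under pentobarbital anaesthesia (35 mg/kg IV, then 3.5 mg/kg/hour infusion), breathing spontaneously; increasing compound doses given IV via femoral vein, each over one minute. LV dP/dt max, heart rate (lead II ECG) and aortic pressure recorded by catheter transducers against ≥30 min control baseline; vehicle controls as needed.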

Compound: COc1ccc(-c2nc3c(C)nn(C)c3c(=O)[nH]2)cc1OC [Example 16, 1,3-Dimethyl-5-(3,4-dimethoxyphenyl)pyrazolo[4,3-d]pyrimidine-7-one]
- IC50 (adenosine A1 receptor): 1920 nM
- % Inhibition of hydrolysis of 3H-cAMP (Type 1 Phosphodiesterase; substrate 3H-cAMP 1.0 μM): 10%
- % Inhibition of hydrolysis of 3H-cGMP (Type 1 Phosphodiesterase; substrate 3H-cGMP 1.0 μM): 17%
- % Inhibition of hydrolysis of 3H-cAMP (Type 3 Phosphodiesterase): 17%
- Percent Change Blood Pressure ([1]; 0.31 mg/kg IV): 1/3
- Percent Change Blood Pressure ([1]; 1.00 mg/kg IV): 1/2
- change in vivo at 0.1 mg/kg ([1]; read-out: Percent Change Heart Rate): 1%
- change in vivo at 0.1 mg/kg ([1]; read-out: Percent Change Myocardial Contractility): 2%
- change in vivo at 0.31 mg/kg ([1]; 0.31 mg/kg IV, read-out: Percent Change Heart Rate): -1%
- change in vivo at 0.31 mg/kg ([1]; 0.31 mg/kg IV, read-out: Percent Change Myocardial Contractility): -1%
- change in vivo at 1 mg/kg ([1]; 1.00 mg/kg IV, read-out: Percent Change Heart Rate): -2%
- change in vivo at 1 mg/kg ([1]; 1.00 mg/kg IV, read-out: Percent Change Myocardial Contractility): -1%
